Source: patent US20100189660A1, “METHODS FOR THE DETECTION OF FATTY-ACYLATED PROTEIN” (Genentech, Inc., priority 2009, published 2010)

How the values were obtained:
MDCK cells [1] = experiment: Hydroxylamine-sensitive assay of alkyne-labeled proteins (thioester vs amide linkage); assay type: cell-based, canine; details: blots treated with 5% hydroxylamine for 72 h
Procedure: These experiments validate the utility of C14 and C16 ω-alkynyl fatty-acyls as probes for protein myristoylation and palmitoylation, respectively.
(§1) Western blotting: Labeled protein lysates were resolved by SDS page using a 4-20% Tris-glycine gel (1 h 10 min at 180V). For immunoblotting of biotin-labeled proteins after electrophoresis, proteins were transferred onto a nitrocellulose membrane, which was blocked with PBS, 0.1% Tween-20 [PBST] and 5% non-fat dried milk for 2 h at RT or overnight at 4° C. The membrane was washed three times with PBST (5 minutes each), and incubated with streptavidin-horseradish peroxidase (Invitrogen Zymed #43-4323, 1:1250 in PBST) for 1 h at RT. The membrane was washed with PBST three times (10 min each) and developed using enhanced chemiluminescence according to manufacturer's recommendation (Amersham Biosciences). For the hydroxylamine-sensitive assay, following the transfer of proteins to nitrocellulose membranes, the membranes were incubated 65 to 72 h at RT with PBST and 5% NH2OH (Sigma-Aldrich). After the hydroxylamine treatment, the membranes were blocked with 5% non-fat dried milk for 2 h at RT or overnight at 4° C. and analyzed by streptavidin blot as described above.

MDCK cells [2] = experiment: Metabolic incorporation of ω-alkynyl fatty-acyls onto cellular proteins, click with biotin-azide, streptavidin-HRP western blot; assay type: cell-based, canine; details: for degree of protein incorporation / time dependence of levels of labeled protein bands: 100 μM; for degree of protein incorporation: 24 h, western blot with streptavidin-HRP; for time dependence of levels of labeled protein bands: within 6 h; for dose dependence of metabolic incorporation: increasing concentration, at 4 h
Source text: Upon preparing the cellular proteome, the alkynyl group incorporated onto acylated proteins was chemoselectively ligated to azide-tagged biotin (for synthesis see Example 2) or fluorophore by a Cu(I)-catalyzed Huisgen alkyne-azide cycloaddition reaction (See, Wang, Q. et al. J. Am. Chem. Soc. 125, 3192-3193 (2003)) (FIG. 1C). The conjugated proteins were separated by gel electrophoresis and analyzed by Western blot using streptavidin-linked horseradish peroxidase (FIG. 2A). […] This was reasonable considering that the majority of protein lipid modifications in cells comprise myristoylation and palmitoylation.
Labeling and detection of lipoproteins in cell extracts: The ω-alkynl fatty-acyl compounds used for the examples were dissolved in DMSO to generate 50 mM stock solutions, and were stored at −80° C. Before cell treatment, the analogs were dissolved in DMEM serum-free media supplemented with 5% BSA (fatty acid-free—SIGMA EC232-936-2) and glutamax (for Raw and MDCK cell lines) at a final concentration of 100 μM. The fatty acid-media solutions were sonicated for 15 minutes at room temperature and then allowed to pre-complex for 15 min at RT.
Cells were seeded with complete media onto 6-well plates (8×10^5 cells/2 ml/well). They were incubated for 24 h before the treatment. Then the growth medium was removed, cells washed once with PBS and 2 mL of the ω-alkynyl fatty-acyls containing media was added to cells and incubated at 37° C. in a 5% CO2 humidified incubator. […] To obtain a final proteome concentration of 2 mg/ml (protein concentration determined by BCA kit) cell lysates were concentrated by centrifugation for 15 minutes at 14,000 rpm at 4° C. with the Centrifugal Ultrafiltration Devices (Pall centrifugal devices MWCO 3K, Nanosep device, cat # P/N ODOO3C34). Protein extracts were then subjected to the probe labeling reaction in 25 μL volume, for 1 h at RT (room temperature), at final concentrations of the following reagents (See, Speers, A. E. & Cravatt, B. F. Profiling enzyme activities in vivo using click chemistry methods. Chem Biol 11, 535-46 (2004); Hsu, T. L. et al. Alkynyl sugar analogs for the labeling and visualization of glycoconjugates in cells. Proc Natl Acad Sci USA 104, 2614-9 (2007)): 0.1 mM biotin-azide, 1 mM Tris (2-carboxyethyl)phosphine hydrochloride (TCEP, Sigma-Aldrich) dissolved in water, 0.2 mM Tris[(1-benzyl-1H-1,2,3-triazol-4-yl)methyl]amine (TBTA, Sigma-Aldrich) dissolved in DMSO/t-butanol (20%/80%) and 1 mM CuSO4 in PBS. The order of addition of the reagents to the protein extracts is important for the reaction and has to be followed as described above.
as §1

MDCK cells [3] = experiment: Specificity of incorporation: cycloheximide treatment and competition with myristic and palmitic acids; assay type: cell-based, canine; details: for probe specificity from competition experiments with myristic and palmitic acids: increasing concentration of myristic (MA) or palmitic acid (PA)
Procedure: MDCK cells were treated with C14 ω-alkynyl fatty acid (100 μM) in the presence or absence cycloheximide (100 μg/ml) for 5 h. Cellular proteome was prepared, reacted with biotin-azide, resolved by gel electrophoresis and detected by western blotting with streptavidin-HRP, as described using methods described herein. Asterisks denote bands labeled by treatment with probe but not in DMSO control; (B, C) Dose-dependent competition of C14 and C16 ω-alkynyl fatty acids with myristic (MA) and palmitic acids (PA), respectively. MDCK cells were treated with ω-alkynyl fatty acid probes as indicated in the presence of increasing concentration of myristic (MA) and palmitic acids (PA). Samples were processed as described herein.
The ω-alkynyl fatty-acyls were metabolically incorporated onto cellular proteins in a time- and dose-dependent manner.
Cells were seeded with complete media onto 6-well plates (8×10^5 cells/2 ml/well). They were incubated for 24 h before the treatment. Then the growth medium was removed, cells washed once with PBS and 2 mL of the ω-alkynyl fatty-acyls containing media was added to cells and incubated at 37° C. in a 5% CO2 humidified incubator. After 24 hours, the cells were washed three times with cold PBS and cell extracts were prepared by resuspending the cells in 400 μL of lysis buffer (1% Nonidet P-40/150 mM NaCl/protease and phosphatase inhibitor/100 mM sodium phosphate, pH 7.5). To obtain a final proteome concentration of 2 mg/ml (protein concentration determined by BCA kit) cell lysates were concentrated by centrifugation for 15 minutes at 14,000 rpm at 4° C. with the Centrifugal Ultrafiltration Devices (Pall centrifugal devices MWCO 3K, Nanosep device, cat # P/N ODOO3C34). […]
Western blotting: Labeled protein lysates were resolved by SDS page using a 4-20% Tris-glycine gel (1 h 10 min at 180V). […] After the hydroxylamine treatment, the membranes were blocked with 5% non-fat dried milk for 2 h at RT or overnight at 4° C. and analyzed by streptavidin blot as described above.

[4] = test system: PC3 prostate cancer cells; experiment: Fluorescence microscopy of cellular fatty-acylated proteins; assay type: cell-based; details: for subcellular distribution of probe: PC3 cells, 100 μM, 3 h, confocal microscopy
Procedure: Cells were treated with DMSO or ω-alkynyl fatty-acyls (100 μM) as indicated for 3 h. The cells were then fixed, permeabilized and click reacted with rhodamine-azide and imaged by epifluorescence microscopy. […] All images were acquired the same way using 63× oil objective. The fluorescence along the z-axis is shown on top of each confocal section (Scale bar, 10 μm); (J, K, L) The distribution of lipid-modified proteins in different cellular states can be monitored by fluorescence imaging. […] The fluorescence along the z-axis is shown on the left-hand side of panel (K).
Cells were then fixed, permeabilized and click reacted with biotin-azide followed with treatment with streptavidin-conjugated Alexa488 and (optionally Hoechst stain for nuclei staining) and imaged using epifluorescence microscopy technique as described herein.
Fluorescence microscopy: Cells were seeded onto 12-well plates (4×10^5 cells/well) containing coverslips and incubated for 24 h before treatment. The growth medium was removed and cells were washed once with PBS before adding 1 mL of medium containing the co-alkynyl fatty acid at the indicated concentration. After 24-48 h incubation at 37° C./5% CO2, cells were washed three times with PBS to remove excess probe (ω-alkynyl fatty acid) and fixed with 4% paraformaldehyde (PFA) for 10 min at RT. Cells were then permeabilized with PBS/0.1% triton X-100 for 1-2 min at RT, washed extensively with the following reagents: 0.1 mM biotin-azide or rhodamine-azide, 1 mM Tris (2-carboxyethyl)phosphine hydrochloride (TCEP) dissolved in water, and 1 mM CuSO4 in PBS at RT for 1 h. The labeled cells were rinsed extensively with PBS and blocked in PBS/5% BSA for 45 min at RT. Cells were stained with streptavidin-conjugated AlexaFluor 488 (Invitrogen cat # S32354, 1:500) in PBS/5% BSA for 45 min at RT and nuclei were stained with Hoechst 33342 (MP # H21492; 1:10,000 in PBS) for 10 min at RT. For labeling with rhodamine-azide, cells were directly stained with Hoechst.

[5] = PC3 cells undergoing cell division, tubulin marker

Row | SMILES | sensitivity of labeled proteins to hydroxylamine / type of linkage (MDCK cells [1]) | degree of protein incorporation (MDCK cells [2]) | time dependence of levels of labeled protein bands (MDCK cells [2]) | dose dependence of metabolic incorporation (MDCK cells [2]) | probe specificity from competition experiments with myristic and palmitic acids (MDCK cells [3]) | subcellular distribution of probe [4] | distribution of labeled proteins during cytokinesis [4, 5] | distribution of labeled proteins in metaphase cells [4, 5] | effect on protein labeling with C14 (MDCK cells [3]; C14 100 μM, cycloheximide 100 μg/ml, 5 h)
1 | C#CCCCCCCCC(=O)O [C11] | predominantly attach via thioester bonds |  |  |  |  |  |  |  | 
2 | C#CCCCCCCCCCCCC(=O)O [C14, 13-Tetradecyn-1-oic acid] | resistance to hydroxylamine treatment | highest degree of protein incorporation | time-dependent increase in the levels of labeled protein bands | dose-dependent metabolic incorporation | specific probes for protein N-myristoylation | distributed in a punctuate pattern outside the nucleus |  |  | 
3 | C#CCCCCCCCCCCCCCC(=O)O [C16, 15-Hexadecyn-1-oic acid] | substantial sensitivity to hydroxylamine | highest degree of protein incorporation | time-dependent increase in the levels of labeled protein bands | dose-dependent metabolic incorporation | S-palmitoylation | distributed in a punctuate pattern outside the nucleus | concentrate at the cleavage furrow | at the plasma membrane and in dense structures around the spindle and throughout the body | 
4 | C[C@@H]1C[C@@H]([C@H](O)CC2CC(=O)NC(=O)C2)C(=O)[C@@H](C)C1 [cycloheximide, reference compound] |  |  |  |  |  |  |  |  | inhibits protein labeling with C14
